In patent publication EP1286591B1, “TREATING SMOOTH MUSCLE HYP[…] (R)-OXYBUTYNIN AND (R)- DESETHYLOXYBUTYNIN” (Watson Pharmaceuticals, Inc., priority 2000, dated 2001):

Columns and labels:
[1] = Therapeutic effects compared with the racemates and optical antipodes; settings: compared to their corresponding racemates and their optical antipodes
[2] = Tolerability in laboratory animals (acute toxicity in mice); type: in vivo; settings: compared with the S(+)-isomer
Method: The experiments are carried out on conscious albino mice that are administered escalating doses of the test compounds intravenously or orally.

[3] = Cardiovascular depressing activity (cardiac side effect studies); type: in vivo, guinea pigs; settings: unwanted side effect of racemic oxybutynin
Method: Male guinea pigs (450-600 g) are anesthetized with freshly prepared dialurethane sodium. The jugular vein is catheterized for iv administration of test drugs and the trachea is exposed and cannulated. Subdermal electrodes are positioned for Lead II electrocardiogram recording, monitored on a Grass Polygraph recorder, set at a paper speed of 50 mm/sec. The animals are allowed to stabilize for 30 minute after completion of surgery, and three baseline EKG recordings are then made at 10-minute intervals. The animals are then given a dose of the test compound or vehicle as an intravenous infusion over 30 min. EKG recordings are used to determine QT intervals and heart rates. To compensate for variations in heart rates, QTc intervals are calculated from QT- and RR-intervals as known to those skilled in the art. Prolongation of QTc is indicative of a prolonged action potential, caused by an inhibition of the delayed rectifier potassium channel. Prolongation of QTc is the known cause of Torsades de Pointes ventricular fibrillation by drugs such as terodiline, terfenadine and astemizole (now withdrawn from the market).

| SMILES | therapeutic effects [1] | tolerated when given to laboratory animals [2] | cardiovascular depressing activity [3] |
| --- | --- | --- | --- |
| CCN(CC)CC#CCOC(=O)[C@](O)(c1ccccc1)C1CCCCC1 [R(-)-isomer of oxybutynin, R(-)-4-diethylamino-2-butynyl_-cyclohexyl-_-hydroxy-benzeneacetate] | superior therapeutic effects | much better tolerated than the S(+)-isomer | – |
| CCN(CC)CC#CCOC(=O)[C@@](O)(c1ccccc1)C1CCCCC1 [S(+)-isomer of oxybutynin] | – | – | serious cardiovascular depressing activity |
| CCNCC#CCOC(=O)[C@](O)(c1ccccc1)C1CCCCC1 [R(-)-isomer of desethyloxybutynin, R(-)-4-ethylamino-2-butynyl cyclohexylphenyl-glycolate] | superior therapeutic effects | – | – |
| CCNCC#CCOC(=O)[C@@](O)(c1ccccc1)C1CCCCC1 [S(+)-isomer of desethyloxybutynin] | – | – | serious cardiovascular depressing activity |
